Non-standard residues stand in square brackets, D forms with d. Residues, ends and D or L forms follow the SMILES beside them. No end group written: not given here.
Assays:
3T3-L1 adipocytes = test: Free Fatty Acid Levels in 3T3-L1 Adipocytes (Example 4, 25 μM); assay type: cell-based, mouse; settings: for Free fatty acid levels, Percent of Control Value (percent isoproterenol control): peptides 25 μM, 20-22 hours then 3 hours with isoproterenol 1 nM, 3T3-L1 adipocytes
Protocol: Following 12-15 days' differentiation, test peptides were added to a final concentration of 25 μM and incubated for 20-22 hours in Adipocyte Maintenance Medium. After 20-22 hours, isoproterenol (1 nM) was added to all wells except untreated controls and test peptides were replenished. Cells were incubated for a further 3 hours in Assay Buffer (Zen-Bio). Free fatty acid concentrations in the media were determined using a Free Fatty Acid Assay Kit (Zen-Bio) according to the manufacturer's instructions using a plate reader (540 nm). Absorbance values were corrected for untreated background and expressed relative to isoproterenol treated cells. Treatment with isoproterenol (1 nM) alone was used as the free fatty acid level stimulatory control. The relative standard deviation of the isoproterenol control was <10%. […] Free fatty acid levels for insulin (100 nM) treatment were <5% of the isoproterenol control value.

[1] = Stability in Mouse Plasma; assay type: in vitro ADME; settings: pooled mouse plasma, 37° C., peptides 100 DM; for remaining at 0.25 h, 100 DM: 15 min; for remaining at 0.5 h, 100 DM: 30 min; for remaining at 1 h, 100 DM: 60 min; for remaining at 2 h, 100 DM: 120 min; for remaining at 3 h, 100 DM: 180 min
Protocol: Peptides (100 DM) were incubated in pooled mouse plasma at 37° C. and samples were removed and immediately analyzed for the concentration of intact peptide by LC/MS/MS over the course of 3 hours. The percent of peptide remaining in plasma at each time point was calculated relative to the initial peak area (Table 9).

C2C12 cells [2] = test: Cell Proliferation in C2C12 Cells (Cyquant DNA dye); assay type: cell-based, mouse; settings: lovastatin 10 μM, 72 hours
Protocol: The effect of the peptides on cell proliferation was assessed using a DNA dye binding assay in cultured cells such as mouse myoblast cells. Peptides were initially prepared as 10 mM stock in DMSO, diluted to 1 mM in H2O, and added at a final concentration of 10 μM (0.1% DMSO). Lovastatin was used as a growth arrest control at final concentration of […]. […] C2C12 cells were grown in DMEM supplemented with 20% FBS with 100 IU/ml penicillin and 100 μg/ml streptomycin. […] C2C12 cells were seeded at 800 cells per well on 96-well plates. […] Cell proliferation was determined using Cyquant Direct Nucleic Acid Stain (Thermo Fisher Scientific, Waltham, Mass.) according to the manufacturer's instructions. Fluorescence for each sample well on the plate was measured using a Cytation 3 plate reader at Ex/Em=495/535 nm (BioTek, Winooski, Vt.). Activity was calculated relative to 0.1% DMSO untreated control. The relative standard deviation for the lovastatin control was <27%. The cell proliferation for the lovastatin control was <25% of the value for untreated control.

C2C12 cells [3] = test: Cellular ROS Levels Induced by TBHP in C2C12 Cells (DCFDA); assay type: cell-based, mouse; settings: sulforaphane 10 µM
Protocol: The protective or synergistic effect of the peptides on cellular levels of reactive oxygen species (ROS) induced by oxidative stress can be assessed using an assay of ROS in cultured cells such as mouse myoblasts exposed to a suitable oxidative stress. Peptides were initially prepared as 10 mM stock in DMSO, diluted to 1 mM in H2O, and added at a final concentration of 10 μM (0.1% DMSO). […] TBHP was used at final concentration of 100 μM. Sulforaphane at final concentration of 10 µM was used as a protective control against TBHP induced ROS production. […] C2C12 cells were grown in DMEM supplemented with 20% FBS with 100 IU/ml penicillin and 100 μg/ml streptomycin. […] C2C12 cells were seeded at 7,500 cells per well on 96-well plates. […] After 18-20 hours of incubation the cells were loaded with DCFDA for 45 min. TBHP at 100 μM was then added to the appropriate wells for 1 hour. ROS activity was determined using a DCFDA Cellular ROS Detection Assay kit (Abcam, Cambridge, Mass.) according to the manufacturer's instructions. Fluorescence in each sample well on the plate was measured using a Cytation 3 plate reader at Ex/Em=485/535 nm (BioTek, Winooski, Vt.). Activity was calculated relative to TBHP control. The relative standard deviation of the sulforaphane control was <20%. The ROS level produced by the sulforaphane control in the presence of TBHP was 52% of the TBHP control.

DIO mice = test: Effects in Diet Induced Obese (DIO) mice, once daily subcutaneous, 10 days (Example 9); assay type: in vivo, mouse; settings: for Difference from Vehicle Control: Decrease from Baseline in Blood Glucose / Difference from Vehicle Control: Decrease from Baseline in Body Weight / Difference from Vehicle Control: Decrease from Baseline in Fat Mass: male DIO mice
Protocol: C57BL/6 mice were maintained on a high fat diet for 18 weeks to develop diet induced obesity. Animals were randomized to treatment groups based on blood glucose levels and body weight. The peptide of SEQ ID NO: 9 was administered to two groups of male DIO mice once daily by subcutaneous injection at doses of 5.0 or 15 mg/kg/dose for 10 days (N=8 animals per treatment group). An additional group of male DIO mice (n=8) received vehicle (water) alone. Body weight, blood glucose levels and food intake were monitored. Body mass distribution (fat vs lean) was determined by quantitative whole body NMR prior to dosing and at the end of dosing.

3T3-L1 mouse adipocytes = test: Free Fatty Acid Levels in 3T3-L1 Mouse Adipocytes (Example 12, 10 μM); assay type: cell-based; settings: insulin 100 nM, Example 12
Protocol: The effect of the peptides on fatty acid metabolism can be assessed using an assay of free fatty acid levels in cultured cells such as mouse adipocytes. Peptides were initially prepared as 10 mM stock in DMSO, diluted to 1 mM in H2O, and used at a final concentration of 10 μM (0.1% DMSO). […] After 20-22 hours, 1 nM isoproterenol was added to all wells except untreated controls and test peptides were replenished. Insulin at 100 nM was added to control wells. […] Free fatty acid concentrations in the media were determined using a Free Fatty Acid Assay kit (Zen-Bio) according to the manufacturer's instructions using a Cytation 3 plate reader at 540 nm (BioTek, Winooski, Vt.). Absorbance values were corrected for untreated background and expressed relative to isoproterenol treated cells. Treatment with isoproterenol (1 nM) alone was used as the free fatty acid level stimulatory control. The relative standard deviation of the isoproterenol control was <10%. […] Free fatty acid levels for insulin (100 nM) treatment were <5% of the isoproterenol control value.

3 (LAVRRTARAIG) [compound 3]
Free fatty acid levels, Percent of Control Value (percent isoproterenol control) (3T3-L1 adipocytes): 91%

4 (LAVRRTARAI) [compound 4]
Free fatty acid levels, Percent of Control Value (percent isoproterenol control) (3T3-L1 adipocytes): 102%

5 (LAVRRTARA[dA]) [compound 5]
Free fatty acid levels, Percent of Control Value (percent isoproterenol control) (3T3-L1 adipocytes): 109%

21 (TFQKTHNLNQHNHPQPNY) [compound 21]
Free fatty acid levels, Percent of Control Value (percent isoproterenol control) (3T3-L1 adipocytes): 91%

22 ([dA]FQKTHNLNQHNHPQPNY) [compound 22]
Free fatty acid levels, Percent of Control Value (percent isoproterenol control) (3T3-L1 adipocytes): 135%

23 ([dA]FQKTHNLNQHNHPQ[dA]N) [compound 23]
Free fatty acid levels, Percent of Control Value (percent isoproterenol control) (3T3-L1 adipocytes): 114%

26 (VVKGPLSEGGHPWGREGI) [compound 26]
Free fatty acid levels, Percent of Control Value (percent isoproterenol control) (3T3-L1 adipocytes): 129%

27 (VVKGPLSEGGHPWGREG) [compound 27]
Free fatty acid levels, Percent of Control Value (percent isoproterenol control) (3T3-L1 adipocytes): 89%

28 (VKAPLSEGGHPWGREG) [compound 28]
Free fatty acid levels, Percent of Control Value (percent isoproterenol control) (3T3-L1 adipocytes): 135%

31 (WAIDEKAVEASGE) [compound 31]
Free fatty acid levels, Percent of Control Value (percent isoproterenol control) (3T3-L1 adipocytes): 115%

32 (W[dA]IDEKAVEASGE) [compound 32]
Free fatty acid levels, Percent of Control Value (percent isoproterenol control) (3T3-L1 adipocytes): 102%

33 (W[dA]IDEKAVE[dA]SGE) [compound 33]
Free fatty acid levels, Percent of Control Value (percent isoproterenol control) (3T3-L1 adipocytes): 92%

CC[C@H](C)[C@H](NC(=O)[C@H](C)NC(=O)[C@H](CO)NC(=O)CNC(=O)[C@@H]1CCCN1C(=O)[C@H](CC(C)C)NC(=O)[C@@H](N)CCCNC(=N)N)C(=O)N[C@@H](CC(C)C)C(=O)N[C@H](C(=O)N[C@@H](CC(N)=O)C(=O)N1CCC[C@H]1C(=O)N[C@H](C(=O)N[C@@H](CC(C)C)C(=O)NCC(=O)N[C@@H](Cc1c[nH]c2ccccc12)C(=O)N[C@H](C(=O)N[C@@H](Cc1c[nH]c2ccccc12)C(=O)N[C@H](C(=O)O)C(C)C)C(C)C)C(C)C)[C@@H](C)O [compound 8] (H-RLPGSAILTNPVLGWVWV-OH)
% Remaining at 0 min [1]: 100%
remaining at 0.25 h, 100 DM [1]: 84.9%
remaining at 0.5 h, 100 DM [1]: 82.7%
remaining at 1 h, 100 DM [1]: 70.9%
remaining at 2 h, 100 DM [1]: 58.7%
remaining at 3 h, 100 DM [1]: 45%

CC[C@H](C)[C@H](NC(=O)[C@@H](C)NC(=O)[C@H](CO)NC(=O)CNC(=O)[C@@H]1CCCN1C(=O)[C@H](CC(C)C)NC(=O)[C@@H](N)CCCNC(=N)N)C(=O)N[C@@H](CC(C)C)C(=O)N[C@H](C(=O)N[C@@H](CC(N)=O)C(=O)N1CCC[C@H]1C(=O)N[C@H](C(=O)N[C@@H](CC(C)C)C(=O)NCC(=O)N[C@@H](Cc1c[nH]c2ccccc12)C(=O)N[C@H](C(=O)N[C@@H](Cc1c[nH]c2ccccc12)C(=O)N[C@H](C(=O)O)C(C)C)C(C)C)C(C)C)[C@@H](C)O [compound 9] (H-RLPGS[dA]ILTNPVLGWVWV-OH)
% Remaining at 0 min [1]: 100%
remaining at 0.25 h, 100 DM [1]: 90.5%
remaining at 0.5 h, 100 DM [1]: 81%
remaining at 1 h, 100 DM [1]: 72%
remaining at 2 h, 100 DM [1]: 56.5%
remaining at 3 h, 100 DM [1]: 46.6%

CC[C@H](C)[C@H](NC(=O)[C@@H](C)NC(=O)[C@H](CO)NC(=O)CNC(=O)[C@@H]1CCCN1C(=O)[C@H](CC(C)C)NC(=O)[C@@H](N)CCCNC(=N)N)C(=O)N[C@@H](CC(C)C)C(=O)N[C@H](C(=O)N[C@@H](CC(N)=O)C(=O)N1CCC[C@H]1C(=O)N[C@H](C(=O)N[C@@H](CC(C)C)C(=O)NCC(=O)N[C@@H](Cc1c[nH]c2ccccc12)C(=O)N[C@H](C(=O)O)C(C)C)C(C)C)[C@@H](C)O [compound 10] (H-RLPGS[dA]ILTNPVLGWV-OH)
% Remaining at 0 min [1]: 100%
remaining at 0.25 h, 100 DM [1]: 76.5%
remaining at 0.5 h, 100 DM [1]: 58.1%
remaining at 1 h, 100 DM [1]: 44.4%
remaining at 2 h, 100 DM [1]: 18.1%
remaining at 3 h, 100 DM [1]: 8.9%

CC[C@H](C)C(=O)O[C@H]1C[C@@H](C)C=C2C=C[C@H](C)[C@H](CC[C@@H]3C[C@@H](O)CC(=O)O3)[C@H]21 [lovastatin, reference compound]
Cell proliferation, % of the value for untreated control (C2C12 cells [2]): < 25%

C[S+]([O-])CCCCN=C=S (stereo not shown) [sulforaphane, reference compound]
ROS level in the presence of TBHP, % of the TBHP control (C2C12 cells [3]): 52%

RLPGS(dA)ILTNPVLGWVWV (RLPGS[dA]ILTNPVLGWVWV) [SEQ ID NO: 9]
Difference from Vehicle Control: Decrease from Baseline in Blood Glucose (DIO mice; 5.0 mg/kg/dose): 7.0 mg/dL
Difference from Vehicle Control: Decrease from Baseline in Body Weight (DIO mice; 5.0 mg/kg/dose): 1.79%
Difference from Vehicle Control: Decrease from Baseline in Fat Mass (DIO mice; 5.0 mg/kg/dose): 0.56 g
Difference from Vehicle Control: Decrease from Baseline in Blood Glucose (DIO mice; 15.0 mg/kg/dose): 18.0 mg/dL
Difference from Vehicle Control: Decrease from Baseline in Body Weight (DIO mice; 15.0 mg/kg/dose): 1.96%
Difference from Vehicle Control: Decrease from Baseline in Fat Mass (DIO mice; 15.0 mg/kg/dose): 0.86 g
Body weight loss compared to vehicle (in words) (DIO mice; 5.0 or 15 mg/kg/dose): greater body weight loss
Decrease in fat mass from baseline compared to vehicle (in words) (DIO mice; 5.0 or 15 mg/kg/dose): greater decrease in fat mass
Reduction in blood glucose compared to vehicle (in words) (DIO mice; 5.0 or 15 mg/kg/dose): greater reduction in blood glucose

insulin [reference compound]
Free fatty acid levels, % of isoproterenol control value (3T3-L1 adipocytes; insulin 100 nM, Example 4): < 5%
Free fatty acid levels, % of isoproterenol control value (3T3-L1 mouse adipocytes): < 5%

— patent US20220324912A1, “THERAPEUTIC PEPTIDES” (COHBAR, INC., priority 2019, published 2022)
